Data on 17 molecules can be found in patent publication US20160046618A1, “Cyclopropyl Fused Thiazin-2-Amine Compounds as Beta-Secretase Inhibitors and Methods of Use” (AMGEN INC., priority 2014, published 2016).

One assay addresses human recombinant BACE1 (Homo sapiens (Human), UniProt P56817). Description: In vitro enzymatic BACE1 FRET assay. In kind it is biochemical. The settings on record: read-out: IC50 IP (μM) BACE1 enzyme. A digest of the protocol:
(§1)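 Tris addition raises the pH to neutral to stop the reaction before fluorescence is measured at 590 nm emission with 488 nm excitation.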

The target in the next assay is human recombinant BACE2 (Homo sapiens (Human), UniProt Q9Y5Z0). Nature of the assay: In vitro enzymatic BACE2 FRET assay. In kind it is biochemical. The settings on record: read-out: IC50 IP (μM) BACE2 enzyme. A digest of the protocol:
as §1

For another assay, the target named is Recombinant Cat D (Homo sapiens (Human), UniProt P07339). Nature of the assay: In vitro enzymatic Cathepsin D (Cat D) FRET assay. In kind it is biochemical. The settings on record: read-out: IC50 IP (μM) CatD. A digest of the protocol:
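Fluorescence at 500 nm excitation and 580 nm emission reports cleavage of a quenched fluorophore–quencher peptide (20 nM) by CHO-expressed Cat D. Reactions ran one hour in 0.05 M citrate pH 3.5, 5 mM CHAPS, 10% DMSO final before a Tris stop raised pH to neutrality.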

Assay [1] has as its system Aβ40 in conditioned medium of cells stably expressing Amyloid Precursor Protein (APP). Description: In vitro BACE-1 cell-based assay (Aβ40 sandwich ELISA). Particulars: read-out: IC50 IP (μM) BACE1 cell. A digest of the protocol:
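Read-out: time-resolved fluorescence (Streptavidin-Europium) of Aβ40 captured by pAb40 and detected with biotinylated 6E10 from supernatants of APP-stable cells. Cells were exposed to compound for 24 h, 10-point dose response, top dose 100 μM or 10 μM, 0.1% DMSO. IC50 fitted to percent of control.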
A general note: ELISA stands for enzyme-linked immunosorbent assay.

A value given as a limit tells only on which side of the number the result lay.

Recombinant Cat D, sequence (P07339 65-412): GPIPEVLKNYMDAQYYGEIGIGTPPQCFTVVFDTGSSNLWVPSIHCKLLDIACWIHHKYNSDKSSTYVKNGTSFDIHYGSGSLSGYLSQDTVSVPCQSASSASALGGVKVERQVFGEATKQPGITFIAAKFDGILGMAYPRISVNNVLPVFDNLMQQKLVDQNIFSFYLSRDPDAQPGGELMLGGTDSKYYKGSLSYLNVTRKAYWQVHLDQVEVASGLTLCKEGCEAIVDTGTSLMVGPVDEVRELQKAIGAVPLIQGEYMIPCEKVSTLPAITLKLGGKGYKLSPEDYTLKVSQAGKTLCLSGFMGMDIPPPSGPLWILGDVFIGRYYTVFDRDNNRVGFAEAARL
human recombinant BACE2, sequence (Q9Y5Z0 63-518): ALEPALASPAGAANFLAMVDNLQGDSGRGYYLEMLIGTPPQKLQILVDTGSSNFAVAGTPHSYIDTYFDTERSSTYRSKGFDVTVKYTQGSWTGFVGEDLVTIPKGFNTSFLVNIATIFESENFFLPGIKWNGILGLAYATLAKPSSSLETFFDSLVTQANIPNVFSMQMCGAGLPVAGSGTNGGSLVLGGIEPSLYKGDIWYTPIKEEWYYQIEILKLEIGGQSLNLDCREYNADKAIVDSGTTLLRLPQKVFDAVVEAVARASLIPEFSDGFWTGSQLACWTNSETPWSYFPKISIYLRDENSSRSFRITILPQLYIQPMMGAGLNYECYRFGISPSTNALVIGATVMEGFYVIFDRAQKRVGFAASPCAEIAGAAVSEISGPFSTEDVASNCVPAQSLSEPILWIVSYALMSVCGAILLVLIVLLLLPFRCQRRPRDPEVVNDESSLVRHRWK
human recombinant BACE1, sequence (P56817 46-501): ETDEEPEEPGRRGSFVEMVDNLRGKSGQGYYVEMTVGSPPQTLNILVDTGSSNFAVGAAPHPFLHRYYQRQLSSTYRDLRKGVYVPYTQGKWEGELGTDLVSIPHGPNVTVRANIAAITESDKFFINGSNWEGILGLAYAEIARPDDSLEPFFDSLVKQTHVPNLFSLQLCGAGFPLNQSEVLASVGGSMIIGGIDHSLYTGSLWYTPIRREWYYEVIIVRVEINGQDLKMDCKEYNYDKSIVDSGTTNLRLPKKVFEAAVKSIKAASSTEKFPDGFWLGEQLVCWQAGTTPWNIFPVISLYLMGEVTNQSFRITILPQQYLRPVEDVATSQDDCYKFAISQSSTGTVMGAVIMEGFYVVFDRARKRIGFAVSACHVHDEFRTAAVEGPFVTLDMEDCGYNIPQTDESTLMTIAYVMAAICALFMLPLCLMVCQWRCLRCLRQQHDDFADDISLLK

The IC50 is the point on the concentration scale where inhibition reaches its midpoint. As to `C#CCOc1cnc(C(=O)Nc2cc(F)c(F)c([C@@]3(C)N=C(N)S[C@@]4(CF)C[C@H]43)c2)c(Cl)c1` [Example 691, N-(3-((1S,5S,6S)-3-amino-1-(fluoromethyl)-5-methyl-2-thia-4-azabicyclo[4.1.0]hept-3-en-5-yl)-4,5-difluorophenyl)-3-chloro-5-(2-propyn-1-yloxy)-2-pyridinecarboxamide], the IC50 at human recombinant BACE1 came out at 0.000673 µM; at human recombinant BACE2, 0.0231 µM; on Recombinant Cat D, 728 µM; in assay [1], 0.00563 µM.
For the molecule `C[C@]1(c2cc(NC(=O)c3ccc(OCC(F)(F)F)cn3)cc(F)c2F)N=C(N)S[C@@]2(CF)C[C@H]21` [Example 692, N-(3-((1S,5S,6S)-3-amino-1-(fluoromethyl)-5-methyl-2-thia-4-azabicyclo[4.1.0]hept-3-en-5-yl)-4,5-difluorophenyl)-5-(2,2,2-trifluoroethoxy)-2-pyridinecarboxamide], the IC50 on human recombinant BACE1 was 0.0053 µM; on human recombinant BACE2, 0.29 µM; on Recombinant Cat D, more than 400 µM; in assay [1], 0.0453 µM.
Take `C[C@]1(c2cc(NC(=O)c3ncc(OCC(F)(F)F)cc3Cl)cc(F)c2F)N=C(N)S[C@@]2(CF)C[C@H]21` [Example 693, N-(3-((1S,5S,6S)-3-amino-1-(fluoromethyl)-5-methyl-2-thia-4-azabicyclo[4.1.0]hept-3-en-5-yl)-4,5-difluorophenyl)-3-chloro-5-(2,2,2-trifluoroethoxy)-2-pyridinecarboxamide]: the IC50 was 0.00294 µM at human recombinant BACE1, 0.246 µM on human recombinant BACE2, 1200 µM on Recombinant Cat D and 0.0489 µM in assay [1].
For `C[C@]1(c2cc(NC(=O)c3ccc(OCC(F)(F)F)cn3)cc(F)c2F)N=C(N)S[C@@]2(C(F)F)C[C@@H]12` [Example 695, N-(3-((1S,5S,6S)-3-amino-1-(difluoromethyl)-5-methyl-2-thia-4-azabicyclo[4.1.0]hept-3-en-5-yl)-4,5-difluorophenyl)-5-(2,2,2-trifluoroethoxy)-2-pyridinecarboxamide] the same measures were 0.00272 µM, 0.263 µM, more than 400 µM and 0.0883 µM.
For `C[C@]1(c2cc(NC(=O)c3ccc(OCC(F)(F)F)cn3)ccc2F)N=C(N)S[C@@]2(C(F)F)C[C@@H]12` [Example 696, N-(3-((1S,5S,6S)-3-amino-1-(difluoromethyl)-5-methyl-2-thia-4-azabicyclo[4.1.0]hept-3-en-5-yl)-4-fluorophenyl)-5-(2,2,2-trifluoroethoxy)-2-pyridinecarboxamide], in that order: 0.0062 µM, 0.324 µM, 846 µM and 0.0707 µM.
For `C[C@]1(c2cc(NC(=O)c3ccc(OCC(F)(F)F)cn3)cc(F)c2F)N=C(N)S[C@@]2(C(=O)N3CCCC3)C[C@H]21` [Example 699, N-(3-((1S,5S,6S)-3-amino-5-methyl-1-(1-pyrrolidinylcarbonyl)-2-thia-4-azabicyclo[4.1.0]hept-3-en-5-yl)-4,5-difluorophenyl)-5-(2,2,2-trifluoroethoxy)-2-pyridinecarboxamide] the same measures were 0.00106 µM, 0.0524 µM, 138 µM and 0.0352 µM.
On to `CNC(=O)[C@]12C[C@H]1[C@@](C)(c1cc(NC(=O)c3ccc(OCC(F)(F)F)cn3)cc(F)c1F)N=C(N)S2` [Example 700, (1S,5S,6S)-3-amino-5-(2,3-difluoro-5-(((5-(2,2,2-trifluoroethoxy)-2-pyridinyl)carbonyl)amino)phenyl)-N,5-dimethyl-2-thia-4-azabicyclo[4.1.0]hept-3-ene-1-carboxamide], for which the half-maximal inhibitory concentration (IC50) on human recombinant BACE1 came to 0.00115 µM; at human recombinant BACE2 it was 0.224 µM; at Recombinant Cat D, 569 µM; in assay [1], 0.00826 µM.
For `CNC(=O)[C@]12C[C@H]1[C@@](C)(c1cc(NC(=O)c3cnc(OCC(F)(F)F)cn3)cc(F)c1F)N=C(N)S2` [Example 701, (1S,5S,6S)-3-amino-5-(2,3-difluoro-5-(((5-(2,2,2-trifluoroethoxy)-2-pyrazinyl)carbonyl)amino)phenyl)-N,5-dimethyl-2-thia-4-azabicyclo[4.1.0]hept-3-ene-1-carboxamide] the same measures were 0.000943 µM, 0.0782 µM, 587 µM and 0.00309 µM.
For `CNC(=O)[C@]12C[C@H]1[C@@](C)(c1cc(NC(=O)c3ncc(OCC(F)(F)F)cc3C)cc(F)c1F)N=C(N)S2` [Example 702, (1S,5S,6S)-3-amino-5-(2,3-difluoro-5-(((3-methyl-5-(2,2,2-trifluoroethoxy)-2-pyridinyl)carbonyl)amino)phenyl)-N,5-dimethyl-2-thia-4-azabicyclo[4.1.0]hept-3-ene-1-carboxamide], in that order: 0.000986 µM, 0.269 µM, 362 µM and 0.0344 µM.
For `C[C@]1(c2cc(Nc3ncnc4cc(C#N)cnc34)ccc2F)N=C(N)S[C@]2(CO)[C@H]1C2(F)F` [Example 703, 4-((3-((1S,5S,6R)-3-amino-7,7-difluoro-1-(hydroxymethyl)-5-methyl-2-thia-4-azabicyclo[4.1.0]hept-3-en-5-yl)-4-fluorophenyl)amino)pyrido[3,2-d]pyrimidine-7-carbonitrile], in that order: 0.00594 µM, 0.011 µM, 340 µM and 0.0153 µM.
For `C[C@]1(c2cc(NC(=O)c3ccc(Cl)cn3)ccc2F)N=C(N)S[C@]2(CO)[C@H]1C2(F)F` [Example 704, N-(3-((1S,5S,6R)-3-amino-7,7-difluoro-1-(hydroxymethyl)-5-methyl-2-thia-4-azabicyclo[4.1.0]hept-3-en-5-yl)-4-fluorophenyl)-5-chloro-2-pyridinecarboxamide], the IC50 was 0.002 µM on human recombinant BACE1, less than 0.00203 µM on human recombinant BACE2, 141 µM on Recombinant Cat D and 0.00557 µM in assay [1].
For `C[C@]1(c2cc(Nc3nccc4nc(OCc5cocn5)cnc34)ccc2F)N=C(N)S[C@]2(CO)[C@H]1C2(F)F` [Example 706, ((1S,5S,6R)-3-amino-7,7-difluoro-5-(2-fluoro-5-((2-(1,3-oxazol-4-ylmethoxy)pyrido[3,4-b]pyrazin-5-yl)amino)phenyl)-5-methyl-2-thia-4-azabicyclo[4.1.0]hept-3-en-1-yl)methanol], in that order: 0.00292 µM, 0.0294 µM, 354 µM and 0.0086 µM.
As for `COC[C@@]12SC(N)=N[C@](C)(c3cc(Nc4ncnc5cc(C#N)cnc45)ccc3F)[C@@H]1C2(F)F` [Example 709, 4-((3-((1S,5S,6R)-3-amino-7,7-difluoro-1-(methoxymethyl)-5-methyl-2-thia-4-azabicyclo[4.1.0]hept-3-en-5-yl)-4-fluorophenyl)amino)pyrido[3,2-d]pyrimidine-7-carbonitrile], the IC50 was 0.0092 µM at human recombinant BACE1, 0.0257 µM at human recombinant BACE2, 148 µM at Recombinant Cat D and 0.104 µM in assay [1].
With `COC[C@@]12SC(N)=N[C@](C)(c3cc(NC(=O)c4ccc(Cl)cn4)ccc3F)[C@@H]1C2(F)F` [Example 710, N-(3-((1S,5S,6R)-3-amino-7,7-difluoro-1-(methoxymethyl)-5-methyl-2-thia-4-azabicyclo[4.1.0]hept-3-en-5-yl)-4-fluorophenyl)-5-chloro-2-pyridinecarboxamide], the half-inhibitory concentration (IC50) on human recombinant BACE1 is 0.00599 µM; at human recombinant BACE2 it was less than 0.00203 µM; at Recombinant Cat D it was 379 µM; in assay [1] it was 0.055 µM.
For `CC(C)(O)[C@@]12SC(N)=N[C@](C)(c3cc(NC(=O)c4ccc(Cl)cn4)ccc3F)[C@@H]1C2(F)F` [Example 711, N-(3-((1S,5S,6R)-3-amino-7,7-difluoro-1-(1-hydroxy-1-methylethyl)-5-methyl-2-thia-4-azabicyclo[4.1.0]hept-3-en-5-yl)-4-fluorophenyl)-5-chloro-2-pyridinecarboxamide], in that order: 0.00311 µM, less than 0.00203 µM, 753 µM and 0.014 µM.
Turning to `C#CCOc1cnc2c(Nc3ccc(F)c([C@@]4(C)N=C(N)S[C@]5([C@@H](C)O)[C@H]4C5(F)F)c3)nccc2n1` [Example 713, (1R)-1-((1S,5S,6R)-3-amino-7,7-difluoro-5-(2-fluoro-5-((2-(2-propyn-1-yloxy)pyrido[3,4-b]pyrazin-5-yl)amino)phenyl)-5-methyl-2-thia-4-azabicyclo[4.1.0]hept-3-en-1-yl)ethanol], the IC50 on human recombinant BACE1 was 0.000864 µM; at human recombinant BACE2 it was 0.00394 µM; on Recombinant Cat D, 547 µM; in assay [1] it was 0.00543 µM.
For the molecule `C#CCOc1cnc2c(Nc3ccc(F)c([C@@]4(C)N=C(N)S[C@]5([C@H](C)O)[C@H]4C5(F)F)c3)nccc2n1` [Example 714, (1S)-1-((1S,5S,6R)-3-amino-7,7-difluoro-5-(2-fluoro-5-((2-(2-propyn-1-yloxy)pyrido[3,4-b]pyrazin-5-yl)amino)phenyl)-5-methyl-2-thia-4-azabicyclo[4.1.0]hept-3-en-1-yl)ethanol], the IC50 was determined as 0.00102 µM at human recombinant BACE1, 0.00913 µM on human recombinant BACE2, 613 µM at Recombinant Cat D and 0.0109 µM in assay [1].
